According to patent publication US10730878B2, “Fused quinoline compounds as PI3K/mTOR inhibitors” (ADVENCHEN PHARMACEUTICALS, LLC, priority 2015, dated 2020):

What was measured:
[1] = test system: pi3K; test: pi3K kinase inhibition, % activity at 0.03 μM (kinases panel screening); assay type: biochemical; conditions: 0.03 μM compound
Source text: (§1) In vitro kinase inhibition activities included Pi3k and mTor activities can be tested with Millipore/Merck KGA of Europe in their kinases panel screening. Animal antitumor activity testing can be conducted by various cancer xenograft models for a compound of formula I. […]

[2] = biological target: T1, mTor (Homo sapiens, UniProt P42345); test: mTor kinase inhibition, % activity at 0.03 μM (kinases panel screening); assay type: biochemical; conditions: 0.03 μM compound
T1 construct: purchased Millipore/Merck KGA of Europe (panel screening service)
Source text: as §1

[3] = test system: tumor cell lines; test: inhibition on tumor cell lines (drawing 11); assay type: cell-based; parameters: tumor cell line inhibition, first column under head drawing 11 / tumor cell line inhibition, third column under head drawing 11: unit not given here; conditions: head is a drawing, cell line and unit not readable; for tumor cell line inhibition, first column under head drawing 11: first of three columns; for tumor cell line inhibition, second column under head drawing 11: second of three columns; for tumor cell line inhibition, third column under head drawing 11: third of three columns
Method: The following compounds or a pharmaceutically acceptable salt thereof, but not limited, can also be prepared similarly according to the methods described in Scheme I-Scheme II. They are also tested for the inhibitions on mTor or pi3k kinases, or tumor cell lines.

Molecule	pi3K % activity @0.03 μM [1]	mTor % activity @0.03 μM [2]	tumor cell line inhibition, first column under head drawing 11 [3]	tumor cell line inhibition, second column under head drawing 11 [3]	tumor cell line inhibition, third column under head drawing 11 [3]
CC(C)(C#N)c1ccc(-n2c3c4cc(-c5cnc(N)cc5C(F)(F)F)ccc4ncc3n3cnnc23)cc1 [2-(4-{4-[6-amino-4-(trifluoromethyl)pyridin-3-yl]-8,11,13,14,16-pentaazatetracyclo-[8.6.0.0^2,^7.0^11,^1^5]hexadec-1(10),2,4,6,8,12,14-heptaen-16-yl}phenyl)-2-methylpropanenitrile]	65%	87%	–	–	–
CCc1nnc2n(-c3ccc(C(C)(C)C)cc3)c3c4cc(-c5cccnc5)ccc4ncc3n12 [3-pyridine; CH2CH3; CH3, CH3; CH3, 16-(4-tert-butylphenyl)-12-ethyl-4-(pyridin-3-yl)-8,11,13,14,16-pentaazatetracyclo-[8.6.0.0^2,^7.0^11,^1^5]hexadec-1(10),2,4,6,8,12,14-heptaene]	79%	40%	–	–	–
Cc1nnc2n(-c3ccc(C(C)(C)C#N)cc3)c3c4cc(-c5cccnc5)ccc4ncc3n12 [3-pyridine; CH3; CH3, CH3; CN, 2-methyl-2-{4-[12-methyl-4-(pyridin-3-yl)-8,11,13,14,16-pentaazatetracyclo-[8.6.0.0^2,^7.0^11,^1^5]-hexadeca-1(10),2,4,6,8,12,14-heptaen-16-yl]phenyl}propanenitrile]	–	80%	0.7	2.6	22
CC(C)(C#N)c1ccc(-n2c3c4cc(-c5cnc6ccccc6c5)ccc4ncc3n3cnnc23)cc1 [3-quinoline; H; CH3, CH3; CN, 2-methyl-2-{4-[4-(quinolin-3-yl)-8,11,13,14,16-pentaazatetracyclo[8.6.0.0^2,^7.0^11,^1^5]-hexadeca-1(10),2,4,6,8,12,14-heptaen-16-yl]phenyl}propanenitrile]	–	–	10.3	8.7	>23
C#CC(C)(C)c1ccc(-n2c3c4cc(-c5ccc(F)cc5)ccc4ncc3n3c(C)nnc23)cc1 [4-Fluorophenyl; CH3; CH3, CH3; CN, 4-(4-fluorophenyl)-12-methyl-16-[4-(2-methylbut-3-yn-2-yl)phenyl]-8,11,13,14,16-pentaaza-tetracyclo-[8.6.0.0^2,^7.0^11,^1^5]hexadeca-1(10),2,4,6,8,12,14-heptaene]	–	–	2	2.2	1.5
Cc1nnc2n(-c3ccc(C(C)(C)C#N)cc3)c3c4cc(-c5ccncc5)ccc4ncc3n12 [4-pyridine; CH3; CH3, CH3; CN, 2-methyl-2-{4-[12-methyl-4-(pyridin-4-yl)-8,11,13,14,16-pentaazatetracyclo[8.6.0.0^2,^7.0^11,^1^5]-hexadeca-1(10), 2,4,6,8,12,14-heptaen-16-yl]phenyl}propanenitrile]	–	–	0.08	0.37	0.23
N-(5-{16-[4-(1-cyano-1-methylethyl)phenyl]-8,11,13,14,16-pentaazatetracyclo[8.6.0.0^2,^7.0^11,^1^5]-hexadeca-1(10),2,4,6,8,12,14-heptaen-4-yl}pyridin-2-yl)-2-(cyclopentylamino)acetamide	71%	−2%	–	–	–

More lines, main results first:

pi3K % activity @0.03 μM [1]	mTor % activity @0.03 μM [2]	Molecule	tumor cell line inhibition, first column under head drawing 11 [3]	tumor cell line inhibition, second column under head drawing 11 [3]	tumor cell line inhibition, third column under head drawing 11 [3]
93%	72%	5-[16-(4-tert-butylphenyl)-12-ethyl-8,11,13,14,16-pentaazatetracyclo[8.6.0.0^2,^7.0^11,^1^5]hexadeca-1(10),2,4,6,8,12,14-heptaen-4-yl]-N-(2-methoxyethyl)pyridin-2-amine	–	–	–
30%	83%	CC(C)(C)c1ccc(-n2c3c4cc(-c5cnc(N)cc5C(F)(F)F)ccc4ncc3n3cnnc23)cc1 [5-[16-(4-tert-butylphenyl)-8,11,13,14,16-pentaazatetracyclo[8.6.0.0^2,^7.0^11,^1^5]hexadeca-1(10),2,4,6,8,12,14-heptaen-4-yl]-4-(trifluoromethyl)pyridin-2-amine]	–	–	–
50%	94%	Cc1nnc2n(-c3ccc(C(C)(C)C)cc3)c3c4cc(-c5cnc(N)cc5C(F)(F)F)ccc4ncc3n12 [5-[16-(4-tert-butylphenyl)-12-methyl-8,11,13,14,16-pentaazatetracyclo[8.6.0.0^2,^7.0^11,^1^5]hexa-deca-1(10), 2,4,6,8,12,14-heptaen-4-yl]-4-(trifluoromethyl)pyridin-2-amine]	–	–	–
40%	20%	CCc1nnc2n(-c3ccc(C(C)(C)C)cc3)c3c4cc(-c5ccc(N)nc5)ccc4ncc3n12 [5-pyridin-2-amine; CH2CH3; CH3, CH3; CH3, 5-[16-(4-tert-butylphenyl)-12-ethyl-8,11,13,14,16-pentaazatetracyclo[8.6.0.0^2,^7.0^11,^1^5]hexadeca-1(10),2,4,6,8,12,14-heptaen-4-yl]pyridin-2-amine]	–	–	–
−19%	–	CC(C)(C)c1ccc(-n2c3c4cc(-c5ccc(N)nc5)ccc4ncc3n3cnnc23)cc1 [5-pyridin-2-amine; H; CH3, CH3; CH3, 5-[16-(4-tert-butylphenyl)-8,11,13,14,16-pentaazatetracyclo[8.6.0.0^2,^7.0^11,^1^5]hexadeca-1(10),2,4,6,8,12,14-heptaen-4-yl]pyridin-2-amine]	–	–	–
−16%	45%	CC(C)(C#N)c1ccc(-n2c3c4cc(-c5ccc(N)nc5)ccc4ncc3n3cnnc23)cc1 [5-pyridin-2-amine; H; CH3, CH3; CN, 2-{4-[4-(6-aminopyridin-3-yl)-8,11,13,14,16-pentaazatetracyclo[8.6.0.0^2,^7.0^11,^1^5]hexadeca-1(10),2,4,6,8,12,14-heptaen-16-yl]phenyl}-2-methylpropanenitrile]	–	–	–
79%	3%	N-(5-{16-[4-(1-cyano-1-methylethyl)phenyl]-8,11,13,14,16-pentaazatetracyclo[8.6.0.0^2,^7.0^11,^1^5]-hexadeca-1(10), 2,4,6,8,12,14-heptaen-4-yl)}pyridin-2-yl)-2-(cyclohexylamino)acetamide	–	–	–
39%	0%	N-(5-{16-[4-(1-cyano-1-methylethyl)phenyl]-8,11,13,14,16-pentaazatetracyclo[8.6.0.0^2,^7.0^11,^1^5]-hexadeca-1(10), 2,4,6,8,12,14-heptaen-4-yl)}pyridin-2-yl)-2-(methylamino)acetamide	–	–	–
68%	−1%	N-(5-{16-[4-(1-cyano-1-methylethyl)phenyl]-8,11,13,14,16-pentaazatetracyclo[8.6.0.0^2,^7.0^11,^1^5]-hexadeca-1(10), 2,4,6,8,12,14-heptaen-4-yl)}pyridin-2-yl)-2-(oxan-4-ylamino)acetamide	–	–	–
88%	27%	N-{5-[16-(4-tert-butylphenyl)-8,11,13,14,16-pentaazatetracyclo[8.6.0.0^2,^7.0^11,^1^5]hexadeca-1(10),2,4,6,8,12,14-heptaen-4-yl]pyridin-2-yl}-2-(pyrrolidin-1-yl)acetamide	–	–	–
